Measured values taken from article PMC11224357, “Green, facile synthesis and evaluation of unsymmetrical carbamide derivatives as antimicrobial and anticancer agents with mechanistic insights” (Scientific Reports, 2024).
Converted amounts (≈) assume the structure as drawn.

Experiments:
[1] = system: Aspergillus fumagitus; experiment: Agar well diffusion; assay type: cell-based; details: Aspergillus fumagitus; 20 µg/mL; read-out: Inhibition Zone
Source text: (§1) The antimicrobial efficiency of the synthesized unsymmetrical carbamide derivatives was screened using standard clinical pathogens derived from Department of Microbiology and Immunology, Faculty of Medicine (Boys), Al-Azhar University. The tested microbial pathogens used in this study were as follows, two Gram-positive bacteria (Bacillus subtilis, Staphylococcus aureus), two Gram-negative bacteria (Pseudomonas aerginousea, klebsiella pneumoniae) and two fungi (Candida albicans, Aspergillus fumgitus). Before each antimicrobial examination, pre-activation of each microbial pathogen was implemented using specific growth conditions. For bacterial ones, preinoculum was prepared using Nuitrent broth medium (Codalab, Spain) at 37 °C for 24 h. while the fungal pathogens were activated using Potato Dextrose broth (Codalab, Spain) at 28 °C for 48 h. Consequently, each tested pathogen justified its inoculum size based on Colony Forming Units (CFU) to be closed to […] during all antimicrobial tests.

[2] = system: Candida albicans; experiment: Agar well diffusion; assay type: cell-based; details: 20 µg/mL, read-out: Inhibition Zone
Source text: as §1

[3] = system: Aspergillus fumagitus; experiment: MIC by microdilution (CLSI); assay type: cell-based; details: read-out: Minimum inhibitory concentration (MIC)
Method: (§2) For this purpose, serial dilution of the potent compounds was carried out to obtain the desired concentrations (i.e. 10–400 µg/mL). In brief, a defined weight for each selected compound was dissolved in dimethylsulphoxide (DMSO) and used as a stock solution[29]. The determination of the MIC value for each targeted compound was known as the lowest concentration of each sample that yielded a minimum number of colony-forming units (CFU) compared to the untreated samples[28].

[4] = system: Candida albicans; experiment: MIC by microdilution (CLSI); assay type: cell-based; details: read-out: Minimum inhibitory concentration (MIC)
Method: as §2

[5] = system: Pseudomonas aeruginosa; experiment: MIC by microdilution (CLSI); assay type: cell-based; details: read-out: Minimum inhibitory concentration (MIC)
Method: (§3) In brief, a defined weight for each selected compound was dissolved in dimethylsulphoxide (DMSO) and used as a stock solution[29].

[6] = system: Klebsiella pneumonia; experiment: MIC by microdilution (CLSI); assay type: cell-based; details: Klebsiella pneumoniae, read-out: Minimum inhibitory concentration (MIC)
Method: as §3

[7] = system: Staphylococcus aureus; experiment: MIC by microdilution (CLSI); assay type: cell-based; details: read-out: Minimum inhibitory concentration (MIC)
Method: as §3

[8] = system: Bacillus subtilis; experiment: MIC by microdilution (CLSI); assay type: cell-based; details: read-out: Minimum inhibitory concentration (MIC)
Method: as §3

[9] = system: Pseudomonas aeruginosa; experiment: Agar well diffusion; assay type: cell-based; details: 20 µg/mL, read-out: Inhibition Zone
Source text: as §1, with “For bacterial ones, preinoculum was prepared using Nuitrent broth medium (Codalab, Spain) at 37 °C for 24 h. while the fungal pathogens were activated using Potato Dextrose broth (Codalab, Spain) at 28 °C for 48 h.” left out

[10] = system: Klebsiella pneumonia; experiment: Agar well diffusion; assay type: cell-based; details: Klebsiella pneumoniae; Klebsiella pneumonia; 20 µg/mL; read-out: Inhibition Zone
Source text: as §1, with “For bacterial ones, preinoculum was prepared using Nuitrent broth medium (Codalab, Spain) at 37 °C for 24 h. while the fungal pathogens were activated using Potato Dextrose broth (Codalab, Spain) at 28 °C for 48 h.” left out

[11] = system: Staphylococcus aureus; experiment: Agar well diffusion; assay type: cell-based
Source text: as §1, with “For bacterial ones, preinoculum was prepared using Nuitrent broth medium (Codalab, Spain) at 37 °C for 24 h. while the fungal pathogens were activated using Potato Dextrose broth (Codalab, Spain) at 28 °C for 48 h.” left out

[12] = system: Bacillus subtilis; experiment: Agar well diffusion; assay type: cell-based; details: 20 µg/mL, read-out: Inhibition Zone
Source text: as §1, with “For bacterial ones, preinoculum was prepared using Nuitrent broth medium (Codalab, Spain) at 37 °C for 24 h. while the fungal pathogens were activated using Potato Dextrose broth (Codalab, Spain) at 28 °C for 48 h.” left out

[13] = system: HCT-116 (human colon cancer); experiment: MTT cytotoxicity assay; assay type: cell-based; details: 48 h; for IC50: HCT-116, MTT; for cytotoxicity at 100 µM: HCT-116, single dose 100 µM, read-out: Cytotoxicity (%)
Method: (§4) The MTT 3-(4,5-dimethylthiazol-2-yl)-2,5-diphenyl-tetrazolium bromide (Bio Basic Canada Inc. Toronto, Canada) assay was used to assess cell viability. The procedures were carried out in a biosafety class II sterile laminar air flow cabinet (Baker, SG403INT; Sanford, ME, USA). […] Cells were seeded at a density of (10^4 cells/well) into 96-well micro titer polypropylene plates and left to adhere for 24 h. The media was aspirated and the test chemicals were given to the cells in a single dose of 100 µM in DMSO. After 48 h of incubation, 40 µL of MTT salt ([…]) was applied to each well. […] Instead of the tested substances, the medium was applied to the untreated cells (negative control). […] The testing substance was dissolved in dimethylsulfoxide (DMSO), and its final concentration in the cells was less than 0.2%. The solvent concentration was the same for all medications and between the control and drug treatments at the same dilution.

[14] = MTT cytotoxicity assay; assay type: cell-based, human; details: human, BJ-1 normal skin fibroblast cells, BJ-1 normal cells
Method: as §4

[15] = system: MCF-7 (human breast cancer); experiment: MTT cytotoxicity assay; assay type: cell-based; details: Homo sapiens, MCF-7, 48 h; for IC50: MCF7, 48 h, MTT; for cytotoxicity at 100 µM: MCF7, single dose 100 µM, read-out: Cytotoxicity (%)
Method: as §4, with “The media was aspirated and the test chemicals were given to the cells in a single dose of 100 µM in DMSO.” left out

[16] = system: MCF-7 cells; experiment: Annexin V-FITC/PI necrosis cell apoptosis assay; assay type: cell-based, human; details: % of population
Method: (§5) The levels of necrosis and apoptosis in cells were determined by CytoFLEX Flow Cytometer. A total of 1 × 10^6 cells were washed in 1 × DPBS, and then were centrifuged at 500 × ϲ for 5 min. 1 μL of annexin V-FITC solution and 5 μL of dissolved PI were added to 100 μL of the cell suspensions that kept on ice and were incubated for 15 min in the dark. Cells were then analyzed by the CytoFLEX Flow Cytometer (Beckman Coulter Life Sciences, USA) and the percentage of apoptotic cells was determined using CytExpert Software.

[17] = system: HCT-116 cells; experiment: Annexin V-FITC/PI necrosis cell apoptosis assay; assay type: cell-based, human; details: % of population
Method: as §5

| Compound | zone of inhibition at 20 µg/mL [1] [mm] | zone of inhibition at 20 µg/mL [2] [mm] | MIC [3] [µg/mL] | MIC [4] [µg/mL] | zone of inhibition at 20 µg/mL [9] [mm] | zone of inhibition at 20 µg/mL [10] [mm] | zone of inhibition at 20 µg/mL [11] [mm] | zone of inhibition at 20 µg/mL [12] [mm] | melting point [°C] | further results |
| --- | --- | --- | --- | --- | --- | --- | --- | --- | --- | --- |
| C[C@@H]1[C@H](O)[C@@H](C)/C=C/C=C/C=C/C=C/C=C/C=C/C=C/[C@H](O[C@@H]2O[C@H](C)[C@@H](O)[C@H](N)[C@@H]2O)C[C@@H]2O[C@](O)(C[C@@H](O)C[C@@H](O)[C@H](O)CC[C@@H](O)C[C@@H](O)CC(=O)O[C@H]1C)C[C@H](O)[C@H]2C(=O)O [Amphotericin B, reference compound] | 5 | 4 | 20 (≈ 21.6 µM) | 40 (≈ 43.3 µM) |  |  |  |  |  |  |
| CC1=C(C(=O)O)N2C(=O)[C@@H](NC(=O)[C@H](N)C3=CCC=CC3)[C@H]2SC1 [Cephradine, reference compound] |  |  |  |  |  |  |  |  |  | MIC [5]: > 400 µg/mL; MIC [6]: > 400 µg/mL; MIC [7]: > 400 µg/mL; MIC [8]: 320 µg/mL (≈ 916 µM) |
| Cc1ccc(S(=O)(=O)NC(=O)N2CCCC2)cc1 [Compound 9, N-tosylpyrrolidine-1-carboxamide] | 2 |  |  |  | 2 | 2 | 4 | 6 | 228 to 230 |  |
| Cc1ccc(S(=O)(=O)NC(=O)N2CCOCC2)cc1 [Compound 10, N-tosylmorpholine-4-carboxamide] | 2 |  |  |  |  | 2 | 4 | 2 | 210 to 211 | IC50 [13]: 72.6 ± 0.13 µM; cytotoxicity at 100 µM [13]: ≥ 65%; cytotoxicity at 48 h, 100 µM [14]: 19.7% |
| Cc1ccc(S(=O)(=O)NC(=O)N2CCN(C)CC2)cc1 [Compound 11, 4-Methyl-N-tosylpiperazine-1-carboxamide] |  |  |  |  |  | 2 | 2 |  | 190 to 192 |  |
| Cc1ccc(S(=O)(=O)NC(=O)N2CCCCC2)cc1 [Compound 12, N-tosylpiperidine-1-carboxamide] |  | 2 |  |  |  | 3 | 3 |  | 232 to 235 |  |
| Cc1ccc(S(=O)(=O)NC(=O)NC23CC4CC(CC(C4)C2)C3)cc1 [Compound 13, N-(adamantan-1-ylcarbamoyl)-4-methylbenzenesulfonamide] |  | 3 |  |  | 3 | 2 | 2 | 6 |  | IC50 [15]: 62.4 ± 0.128 µM; cytotoxicity at 100 µM [15]: ≥ 51%; IC50 [13]: 43.5 ± 0.15 µM; cytotoxicity at 100 µM [13]: ≥ 65%; early apoptosis [16]: 2.24%; late apoptosis [16]: 0.58%; early apoptosis [17]: 45.07%; late apoptosis [17]: 0.42%; cytotoxicity at 48 h, 100 µM [14]: 2.7% |
| Cc1ccc(NC(=O)N2CCCC2)cc1 [Compound 14, N-(p-tolyl)pyrrolidine-1-carboxamide] | 3 | 8 |  |  |  | 2 | 3 | 4 | 180 to 182 |  |
| Cc1ccc(NC(=O)N2CCN(C)CC2)cc1 [Compound 16, 4-Methyl-N-(p-tolyl)piperazine-1-carboxamide] | 3 | 5 | 80 (≈ 343 µM) | 10 (≈ 42.9 µM) | 3 | 5 | 2 | 2 | 252 to 253 | MIC [5]: 160 µg/mL (≈ 686 µM); MIC [7]: 320 µg/mL (≈ 1370 µM); MIC [8]: 160 µg/mL (≈ 686 µM) |
| Cc1ccc(NC(=O)N2CCCCC2)cc1 [Compound 17, N-(p-tolyl)piperidine-1-carboxamide] | 3 | 2 | 20 (≈ 91.6 µM) | 20 (≈ 91.6 µM) | 3 | 3 | 2 | 5 | 230 to 232 | MIC [5]: 40 µg/mL (≈ 183 µM); MIC [6]: 80 µg/mL (≈ 366 µM); MIC [7]: 80 µg/mL (≈ 366 µM); MIC [8]: 10 µg/mL (≈ 45.8 µM) |
| Cc1ccc(NC(=O)NC23CC4CC(CC(C4)C2)C3)cc1 [Compound 18, 1-(Adamantan-1-yl)-3-(p-tolyl)urea] | 3 | 2 |  |  |  |  |  | 2 | 180 to 182 |  |
| O=C(Nc1ccccc1)N1CCCC1 [Compound 19, N-phenylpyrrolidine-1-carboxamide] | 3 | 4 | 40 (≈ 210 µM) | 10 (≈ 52.6 µM) | 2 | 4 | 2 | 2 | 233 to 235 | MIC [5]: 80 µg/mL (≈ 421 µM); MIC [7]: 160 µg/mL (≈ 841 µM); MIC [8]: 80 µg/mL (≈ 421 µM) |
| O=C(Nc1ccccc1)N1CCOCC1 [Compound 20, N-phenylmorpholine-4-carboxamide] | 2 | 3 |  |  | 3 | 4 |  | 2 |  |  |
| O=C(Nc1ccccc1)NC12CC3CC(CC(C3)C1)C2 [Compound 23, 1-(Adamantan-1-yl)-3-phenylurea] |  | 3 |  |  |  | 2 | 2 | 3 |  | IC50 [15]: 68.6 ± 0.116 µM; cytotoxicity at 100 µM [15]: ≥ 51% |
| COc1cccc2c1C(=O)c1c(O)c3c(c(O)c1C2=O)C[C@@](O)(C(=O)CO)C[C@@H]3O[C@H]1C[C@H](N)[C@H](O)[C@H](C)O1 [Doxorubicin, doxorubicin, reference compound] |  |  |  |  |  |  |  |  |  | IC50 [15]: 45 ± 0.123 µM; IC50 [13]: 65.1 ± 0.141 µM |
| OC(Cn1cncn1)(Cn1cncn1)c1ccc(F)cc1F [Fluconazole, reference compound] |  |  | > 400 | > 400 |  |  |  |  |  |  |
